Laboratory results from the CheMixHub ionic liquid set.

Assay: xn = mol fraction of the nth substance listed
Settings: 101 kPa

Cn1cc[n+](CCC[n+]2ccn(C)c2)c1.[Br-].[Br-] + O=C[C@H](O)[C@@H](O)[C@H](O)[C@H](O)CO + O
viscosity [mPa·s]
Settings	293.15 K	298.15 K	303.15 K	308.15 K	313.15 K
x1 = 0.0005066, x2 = 0.001798	1.061	0.945	0.846	0.764	0.696
x1 = 0.0005575, x2 = 0.001798	1.059	0.942	0.844	0.765	0.695
x1 = 0.0005912, x2 = 0	1.016	0.905	0.812	0.734	0.669
x1 = 0.0006805, x2 = 0	1.016	0.904	0.811	0.734	0.67
x1 = 0.0007464, x2 = 0.001797	1.065	0.947	0.848	0.768	0.698
x1 = 0.0007474, x2 = 0	1.019	0.908	0.816	0.739	0.673
x1 = 0.0009122, x2 = 0	1.025	0.913	0.82	0.74	0.675
x1 = 0.0009147, x2 = 0.001797	1.073	0.954	0.856	0.773	0.704
x1 = 0.001085, x2 = 0.001797	1.079	0.96	0.86	0.779	0.707
x1 = 0.001235, x2 = 0.001797	1.086	0.966	0.867	0.78	0.71
x1 = 0.00129, x2 = 0	1.043	0.927	0.832	0.754	0.686
x1 = 0.001332, x2 = 0.001796	1.083	0.963	0.863	0.782	0.712
x1 = 0.00144, x2 = 0	1.05	0.935	0.84	0.758	0.693
x1 = 0.001476, x2 = 0.001796	1.087	0.966	0.866	0.784	0.713
x1 = 0.001591, x2 = 0.001796	1.093	0.97	0.87	0.786	0.715
x1 = 0.001838, x2 = 0	1.066	0.948	0.85	0.768	0.7
x1 = 0.002094, x2 = 0	1.071	0.955	0.855	0.77	0.702
x1 = 0.002204, x2 = 0	1.071	0.955	0.857	0.774	0.705
x1 = 0.002491, x2 = 0	1.084	0.962	0.859	0.775	0.708
